Data: paper PMC11489133, “Obicetrapib exhibits favorable physiochemical and pharmacokinetic properties compared to previous cholesteryl ester transfer protein inhibitors: An integrated summary of results from non‐human primate studies and clinical trials” (Pharmacology Research & Perspectives, 2024)
Like-named read-outs stand apart in the source and are kept apart here.

What was measured:
[1] = TULIP Phase II trial, plasma concentrations of obicetrapib; assay type: in vivo, humans; details: for % Change in Plasma Level: Week 20 vs EOT, mean (SD); for concentration at 12 weeks / concentration at 20 weeks: both sexes, human, plasma, oral, read-out: Mean (SD) Plasma Level; for concentration at 12 weeks: Week 12 (EOT)
Procedure: (§1) The PK parameters and the effect of food on the bioavailability of obicetrapib in humans have been examined in both Phase I[9] (TA‐8995‐09 CSR, NewAmsterdam Pharma) and Phase II trials.[10], [11], [12], [13] The trials were performed in accordance with the Declaration of Helsinki, Good Clinical Practice Guidelines, and applicable regulatory requirements. Approval was obtained from the relevant ethical review boards for each site. All volunteers provided written informed consent prior to participation. PK parameters were determined using WinNonlin software, version 4.1 or higher (Pharsight/Certara Corporation, USA). Concentrations of obicetrapib were summarized for each treatment group using descriptive statistics.
TULIP (NCT01970215) was a placebo‐controlled, double‐blind, randomized parallel‐group trial conducted to evaluate the effects of varying doses of obicetrapib as monotherapy and in combination with moderate‐intensity statin therapy on LDL‐C and HDL‐C levels.[10]
Additionally, the plasma concentrations of obicetrapib were evaluated during and after the treatment period. Eligible participants had mild dyslipidemia defined as LDL‐C levels between 96–174 mg/dL, HDL‐C levels between 31 and 70 mg/dL, and triglyceride levels <400 mg/dL after a washout for those on lipid‐modifying therapies. Three hundred and sixty‐four participants (mean age: 64.7 years; 81.6% male; 98.1% White; mean body mass index [BMI]: 26.0 kg/m^2) were enrolled at 17 clinical research sites in the Netherlands and Denmark and randomized in a […] ratio to one of nine treatment groups: (1) placebo; (2) 1 mg obicetrapib; (3) 2.5 mg obicetrapib; (4) 5 mg obicetrapib; (5) 10 mg obicetrapib; (6) 10 mg atorvastatin; (7) 10 mg obicetrapib plus 20 mg atorvastatin; (8) 10 mg rosuvastatin; or (9) 10 mg obicetrapib plus 10 mg rosuvastatin. The participants were instructed to take their assigned treatment orally with food once daily for the 12‐week treatment period. After randomization, participants returned to the clinical research site for PK assessments at Weeks 8 and 12 (end of treatment). Participants also completed follow‐up visits two and eight weeks after the end of treatment (Weeks 14 and 20) for final safety and PK assessments. Of the 364 participants randomized, 337 (92.6%) completed the trial and were included in the primary analysis. The PK population (n = 242) included all randomized participants who received at least one dose of obicetrapib and had at least one valid plasma drug concentration data assessment; 227 (93.8%) of the participants in the PK population were included in the 8‐week post‐end of treatment PK analysis (TA‐8995‐03 CSR, NewAmsterdam Pharma).

[2] = ROSE2 Phase II trial, plasma concentrations of obicetrapib; assay type: in vivo, humans; details: for % Change in Plasma Level: Week 12 to Week 16, mean (SD); for concentration at 12 weeks / concentration at 16 weeks: both sexes, human, plasma, oral, read-out: Mean (SD) Plasma Level; for concentration at 12 weeks: Week 12 (EOT), on‐treatment PK population; for concentration at 16 weeks: Week 16, four weeks after the end of treatment
Procedure: as §1
ROSE2 (NCT05266586) was a placebo‐controlled, double‐blind, randomized trial conducted to evaluate the efficacy, safety, and tolerability of obicetrapib or obicetrapib plus ezetimibe as an adjunct to high‐intensity statin therapy.[12] An exploratory endpoint of the trial included assessing the plasma concentrations of obicetrapib during treatment and 4 weeks after the end of treatment. […] One hundred nineteen participants (mean age: 62.6 years; 63.9% male; 84.5% White; mean BMI: 30.9 kg/m^2) were enrolled at 18 clinical research sites in the United States and randomized in a 1:1:1 ratio to one of three treatment groups: (1) placebo; (2) obicetrapib monotherapy (one 10 mg obicetrapib tablet plus one placebo capsule for ezetimibe); or (3) combination therapy (one 10 mg obicetrapib tablet plus one 10 mg ezetimibe capsule). The participants were instructed to take their assigned treatment orally with water once daily at approximately the same time each morning for the 12‐week treatment period. After randomization, participants returned to the clinical research site during Weeks 4 and 12 (end of treatment) for safety and PK assessments. Participants also completed a follow‐up visit 4 weeks after the end of treatment (Week 16) for final safety and PK assessments. Of the 119 participants randomized, 97 (81.5%) were included in an on‐treatment analysis, which excluded participants with plasma concentrations of obicetrapib <100 ng/mL at either or both Week 4 and Week 12.[12] The on‐treatment PK population (n = 57) included all randomized participants in the mITT population assigned to the two obicetrapib dose groups who had sufficient blood samples collected for valid estimation of PK parameters and excluded participants with plasma concentrations of obicetrapib <100 ng/mL at either or both Week 4 and Week 12. Fifty‐six (98.2%) participants in the on‐treatment PK population were included in the 4‐week post‐end of treatment PK analysis (TA‐8995‐202 CSR, NewAmsterdam Pharma).

[3] = cited from earlier work
[4] = Obicetrapib 10 mg + atorvastatin 20 mg
[5] = Obicetrapib 10 mg + rosuvastatin 10 mg
[6] = Obicetrapib 10 mg + ezetimibe 10 mg + high‐intensity statin
[7] = Obicetrapib 10 mg + high‐intensity statin

For CCOC(=O)N1c2ccc(C(F)(F)F)cc2C(N(Cc2cc(C(F)(F)F)cc(C(F)(F)F)c2)c2ncc(OCCCC(=O)O)cn2)CC1CC (stereo not drawn) [Obicetrapib], the “% Change in Plasma Level” value ([1]; Obicetrapib 5 mg) was −97.8 (0.8) %, the “Mean (SD) Plasma Level” value ([1]; Obicetrapib 10 mg + atorvastatin 20 mg, Week 20, eight weeks after the end of treatment) was 10.8 (5.9) ng/mL and the “% Change in Plasma Level” value [1, 4] was −97.4 (1.0) %. The “% Change in Plasma Level” value [1, 5] was −97.3 (1.3) %, the “% Change in Plasma Level” value ([1]; Obicetrapib 10 mg) was −97.7 (0.7) % and the concentration at 12 weeks ([1]; 5 mg, Obicetrapib 5 mg once daily) was 258 ng/mL. It also gave a concentration at 20 weeks ([1]; 5 mg, Obicetrapib 5 mg, Week 20, eight weeks after the end of treatment) of 5.9 ng/mL, a concentration at 12 weeks ([1]; 10 mg, Obicetrapib 10 mg once daily) of 408 ng/mL and a concentration at 20 weeks ([1]; 10 mg, Obicetrapib 10 mg, Week 20, eight weeks after the end of treatment) of 9.8 ng/mL. It also gave a concentration at 12 weeks [1, 4] of 404 ng/mL, a concentration at 12 weeks [1, 5] of 402 ng/mL and a concentration at 20 weeks ([1]; Obicetrapib 10 mg + rosuvastatin 10 mg, Week 20, eight weeks after the end of treatment) of 11.3 ng/mL. The “decrease of plasma levels” value ([1]; eight weeks after the last dose (Week 20), all treatment groups) was “approximately 97%”, the “% Change in Plasma Level” value [2, 6] was −92.2 (3.7) % and the “% Change in Plasma Level” value [2, 7] was −93.7 (3.3) %. For the same compound, the “% Change in Plasma Level” value ([2]; Obicetrapib 10 mg + high‐intensity statin, listed as obicetrapib) was −93.7%, the concentration at 12 weeks [2, 6] was 360 ng/mL and the concentration at 16 weeks [2, 6] was 28.7 ng/mL. For the same compound, the concentration at 12 weeks [2, 7] was 387 ng/mL, the concentration at 16 weeks [2, 7] was 24.5 ng/mL and the PSA [3] was 105 Å^2.
